# From US20220241311A1, “METHODS AND MATERIALS FOR TREATING GLYCOSYLATION DISORDERS” (priority 2018, published 2022)
# Columns and labels:
# [1] = tested on: ICAM-1; assay: ICAM-1 Western blotting with galactose supplementation, patient skin fibroblasts; conditions: patient 5; all doses
# [2] = tested on: healthy controls (WT) fibroblasts; assay: Nucleotide sugar analysis (UPLC-PDA), healthy controls; format: cell-based, human
# Description: Levels of nucleotides and sugar-nucleotides were determined. Fibroblast cell pellets (5×10^6 cells per sample) were lysed and extracted in 0.37 ml ice-cold 0.5 M perchloric acid with sonication on ice. Samples were neutralized with 86 μl ice-cold neutralization solution (2.5 M KOH in 1.5 M K2HPO4) after 5 minute sonication. To remove precipitated potassium perchlorate neutralized samples were centrifuged at 4° C. and 16,400×g for 10 minutes and filtered with 0.2 μm filters. Nucleotides and sugar-nucleotides were immediately analyzed and separated via ion-pair reverse phased chromatography using an Acquity HSS T3 column (150 mm×2.1 mm, 1.7 μm, Waters) connected to an Acquity H-class UPLC system. The column temperature was set to 40° C. and the column was equilibrated with solvent A (50 mM potassium phosphate buffer, 8 mM tetrabutylammonium hydrogensulfate, pH 6.5) at a flow rate of 0.45 ml min^−1. Autosampler temperature was maintained at 6° C. […] Nucleotides were detected by Acquity PDA detector (Waters, 260 nm) and quantified using ultrapure standards (Sigma). Data acquisition and processing was performed with the Empower3 software suite (Waters).
# Nucleotide sugars were measured with serum starvation during 18 hours of culturing and without of serum starvation and applying normal media.
# [3] = Blood concentration of D-gal after oral dose; format: in vivo, human; conditions: PGM1-CDG patients; 1-1.5 g/kg/day oral
# Description: An oral dose of 0.3 g/kg D-gal supplement leads to a blood concentration of D-gal at 0.75 mM, 1.0 g/kg D-gal dose corresponds to 2.25 mM peak concentration of D-gal in blood, while an oral dose of 1.5 g/kg galactose supplement leads to a blood peak concentration of 3.5 mM (Tegtmeyer et al. 2014). The blood concentration of free D-galactose in un-supplemented individuals was below 0.01 mM.
# [4] = cited from earlier work
# [5] = tested on: skin fibroblasts of Patient 2; assay: N- and O-linked glycan analysis by MALDI-TOF mass spectroscopy; format: cell-based, human
# Description: Fibroblasts from Patient 2 were used for N- and O-linked glycan analysis with and without D-gal feeding in vitro. Upon reaching 100% confluence, the cells were washed twice with PBS and harvested using a cell scraper. The cells were then pelleted and washed with PBS by centrifugation. Fibroblast pellets were lysed in 200 μL PBS, and 200 μg protein from the cell lysate was denatured and precipitated with ˜2 Å volume of 100% propanol. N-linked and O-linked glycans were released from precipitated protein, and free oligosaccharides were purified from the supernatant. N-linked glycans were released from the cell pellets using the PNGase F kit from New England Biolabs (Ipswich, Mass., USA). O-linked glycans were released using β-elimination with sodium borohydride. The released N-linked glycans from cells or deprotonated total cell lysate were purified and desalted by solid phase extraction using a SepPak C18 and carbograph column. O-linked glycans from cells were purified and desalted using an AG 50W-X8 resin cation exchange column. N-linked glycans, O-linked glycans and oligosaccharides were permethylated with sodium hydroxide and iodomethane in dimethyl sulfoxide (DMSO). After permethylation, glycans were extracted with water/chloroform (2:1, vol/vol) in four steps and dried. Samples were then dissolved in 50% methanol, spotted with 11% 2,5-dihydroxylbenzoic acid matrix (1:1 vol/vol), and measured in triplicates and compared to two healthy controls. Measurements were performed by MALDI-TOF using the positive mode on Ultraflex MALDI-TOF/TOF system (BrunkerDaltonics, Billerica, Mass., USA) as described elsewhere (see, e.g., Xia et al., 2013 Anal Biochem 442:178-185).
# [6] = 4 days of 0.75 mM galactose following 18 hours of serum starvation
compound,measurement,setting,value
"O=C[C@H](O)[C@@H](O)[C@@H](O)[C@H](O)CO [D-gal, D-galactose]",ICAM-1 expression,[1],No improvement
same,ADP,"[2]; WT, 1 d 2 mM Galactose",483.78 pmol/mio cells
same,AMP,"[2]; WT, 1 d 2 mM Galactose",10.14 pmol/mio cells
same,ATP,"[2]; WT, 1 d 2 mM Galactose",2604.27 pmol/mio cells
same,CTP,"[2]; WT, 1 d 2 mM Galactose",291.83 pmol/mio cells
same,GDP,"[2]; WT, 1 d 2 mM Galactose",194.35 pmol/mio cells
same,GDP-Man,"[2]; WT, 1 d 2 mM Galactose",72.63 pmol/mio cells
same,GTP,"[2]; WT, 1 d 2 mM Galactose",491.50 pmol/mio cells
same,UDP,"[2]; WT, 1 d 2 mM Galactose",159.94 pmol/mio cells
same,UDP-Gal,"[2]; WT, 1 d 2 mM Galactose",400.64 pmol/mio cells
same,UDP-Glc,"[2]; WT, 1 d 2 mM Galactose",345.82 pmol/mio cells
same,UTP,"[2]; WT, 1 d 2 mM Galactose",1267.16 pmol/mio cells
same,cAMP,"[2]; WT, 1 d 2 mM Galactose",77.78 pmol/mio cells
same,ADP,"[2]; WT, 1 d + 0.75 mM Galactose",506.33 pmol/mio cells
same,AMP,"[2]; WT, 1 d + 0.75 mM Galactose",16.00 pmol/mio cells
same,ATP,"[2]; WT, 1 d + 0.75 mM Galactose",2677.06 pmol/mio cells
same,CTP,"[2]; WT, 1 d + 0.75 mM Galactose",288.74 pmol/mio cells
same,GDP,"[2]; WT, 1 d + 0.75 mM Galactose",215.25 pmol/mio cells
same,GDP-Man,"[2]; WT, 1 d + 0.75 mM Galactose",97.79 pmol/mio cells
same,GTP,"[2]; WT, 1 d + 0.75 mM Galactose",519.85 pmol/mio cells
same,UDP,"[2]; WT, 1 d + 0.75 mM Galactose",164.12 pmol/mio cells
same,UDP-Gal,"[2]; WT, 1 d + 0.75 mM Galactose",298.39 pmol/mio cells
same,UDP-Glc,"[2]; WT, 1 d + 0.75 mM Galactose",313.93 pmol/mio cells
same,UTP,"[2]; WT, 1 d + 0.75 mM Galactose",1283.20 pmol/mio cells
same,cAMP,"[2]; WT, 1 d + 0.75 mM Galactose",70.82 pmol/mio cells
same,ADP,"[2]; WT, 4 d 2 mM Galactose",800.89 pmol/mio cells
same,AMP,"[2]; WT, 4 d 2 mM Galactose",43.70 pmol/mio cells
same,ATP,"[2]; WT, 4 d 2 mM Galactose",4045.74 pmol/mio cells
same,CTP,"[2]; WT, 4 d 2 mM Galactose",267.44 pmol/mio cells
same,GDP,"[2]; WT, 4 d 2 mM Galactose",375.01 pmol/mio cells
same,GDP-Man,"[2]; WT, 4 d 2 mM Galactose",179.79 pmol/mio cells
same,GTP,"[2]; WT, 4 d 2 mM Galactose",706.71 pmol/mio cells
same,UDP,"[2]; WT, 4 d 2 mM Galactose",209.11 pmol/mio cells
same,UDP-Gal,"[2]; WT, 4 d 2 mM Galactose",227.46 pmol/mio cells
same,UDP-Glc,"[2]; WT, 4 d 2 mM Galactose",272.66 pmol/mio cells
same,UDP-GlcNAc,"[2]; WT, 4 d 2 mM Galactose",5.74 pmol/mio cells
same,UTP,"[2]; WT, 4 d 2 mM Galactose",1538.99 pmol/mio cells
same,cAMP,"[2]; WT, 4 d 2 mM Galactose",71.87 pmol/mio cells
same,ADP,"[2]; WT, 4 d + 0.75 mM Galactose",670.35 pmol/mio cells
same,AMP,"[2]; WT, 4 d + 0.75 mM Galactose",28.04 pmol/mio cells
same,ATP,"[2]; WT, 4 d + 0.75 mM Galactose",4021.73 pmol/mio cells
same,CTP,"[2]; WT, 4 d + 0.75 mM Galactose",254.91 pmol/mio cells
same,GDP,"[2]; WT, 4 d + 0.75 mM Galactose",307.92 pmol/mio cells
same,GDP-Man,"[2]; WT, 4 d + 0.75 mM Galactose",191.57 pmol/mio cells
same,GTP,"[2]; WT, 4 d + 0.75 mM Galactose",691.97 pmol/mio cells
same,UDP,"[2]; WT, 4 d + 0.75 mM Galactose",156.18 pmol/mio cells
same,UDP-Gal,"[2]; WT, 4 d + 0.75 mM Galactose",219.26 pmol/mio cells
same,UDP-Glc,"[2]; WT, 4 d + 0.75 mM Galactose",268.34 pmol/mio cells
same,UTP,"[2]; WT, 4 d + 0.75 mM Galactose",1495.61 pmol/mio cells
same,cAMP,"[2]; WT, 4 d + 0.75 mM Galactose",67.63 pmol/mio cells
same,UDP-Glc and UDP-Gal levels,"[2]; control cells, increase on first day of D-gal",normalized at 4 days
same,"Nucleotide sugar ratio UDP-Glc/UDP-Gal, mean","[2]; controls, both with or without D-gal",1.2
same,Peak concentration of galactose in blood,[3],0.75 to 2 mM
same,Peak concentration of D-gal in blood,[4]; 1.0 g/kg dose,2.25 mM
same,Blood concentration of D-gal,[4]; oral dose of 0.3 g/kg,750 µM
same,Blood peak concentration,[4]; oral dose of 1.5 g/kg,3.5 mM
same,"N-glycan m/z 2070.06 Hexose5HexNAc4, Level",[5]; [6],Normal
same,"N-glycan m/z 2431 Sial1Hexose5HexNAc4, Level",[5]; [6],Normal
same,"N-glycan m/z 2605 + 2431 monosialo biantennary glycans, Level",[5]; [6],High
same,"N-glycan m/z 2605 Fuc1Sial1Hexose5HexNAc4, Level",[5]; [6],High
same,"O-glycan m/z 1256 core1, disialyl T, Level",[5]; [6],Low
same,"O-glycan m/z 1706 core2, disalyl, sial2hexose2hexNAc2, Level",[5]; [6],High
same,"O-glycan m/z 1706 core2, disalyl, sial2hexose2hexNAc2, % Total glycan","[5]; 4 days of 0.75 mM galactose following 18 hours of serum starvation, control range 14%",35.12%
same,"O-glycan m/z 1256 core1, disialyl T, % Total glycan","[5]; 4 days of 0.75 mM galactose following 18 hours of serum starvation, control range 55.12%",11.22%
same,"N-glycan m/z 2070.06 Hexose5HexNAc4, % Total glycan","[5]; 4 days of 0.75 mM galactose following 18 hours of serum starvation, control range <3.88%",3.65%
same,"N-glycan m/z 2431 Sial1Hexose5HexNAc4, % Total glycan","[5]; 4 days of 0.75 mM galactose following 18 hours of serum starvation, control range <3.90%",2.23%
same,"N-glycan m/z 2605 Fuc1Sial1Hexose5HexNAc4, % Total glycan","[5]; 4 days of 0.75 mM galactose following 18 hours of serum starvation, control range <4.46%",6.15%
same,"N-glycan m/z 2605 + 2431 monosialo biantennary glycans, % Total glycan","[5]; 4 days of 0.75 mM galactose following 18 hours of serum starvation, control range <8.36%",8.38%
same,Monosialo core 1 at m/z 895,[5]; both in control and PGM1-CDG cells,increased
same,Sialylation of N-glycans,[5]; in vitro galactose treatment of fibroblasts,improved sialylation
same,GlcNAcylation in N-linked or O-linked protein glycosylation profiles,[5]; patient 2 fibroblasts after serum starvation,No change
